# From patent EP4197333A1, “METHOD FOR C[…] RESISTANT PESTS & COMPOUNDS THEREFOR” (Syngenta Crop Protection AG, priority 2021, dated 2023)
# System: sensitive Plutella strain
# Experiment: Control of sensitive Plutella strain
# Assay type: in vivo
# Settings: 80% control, on average, read-out: concentration controlling the sensitive Plutella strain at 80%
compound,measurement,value
CNC(=O)c1cc(Cl)cc(C)c1NC(=O)c1cc(Br)nn1-c1ncccc1Cl [chlorantraniliprole],EC80,0.25 µg/mL
